# Results: patent US8940943B2, “Cosmetic preparations” (Cognis IP Management GmbH, priority 2010, dated 2015)
# How the values were obtained:
# human skin [1] = test: occlusive epicutaneous 24 h patch test (skin compatibility)
# Description: The di(2-propylheptyl)ether obtained according to production example 2 was compared in an occlusive epicutaneous 24 h patch test against the commercially available di-n-octyl ether. […] 24 after application the patch was removed, after a further 6 hours the first visual assessment was carried out, further assessments were carried out 24, 48 and 72 hours after the patch was removed.
# The assessment was based on a scale from 0 (no reaction) to 4 (strong reaction) in the categories: erythema formation, edema formation, formation of scales (=squamation) and formation of cracks (=fissuration). A so-called total irritation score RSS value was found from the values obtained.
# human skin [2] = test: in-vivo patch test, 24 hours on human skin, skin reddening or irritation; settings: compared to diethylhexyl ether, water and surfactant solution as negative and positive standards
# Description: In an in-vivo patch test, the test substances are applied on human skin and left there for 24 hours. Then an assessment is made with respect to possible occurrence of skin reddening or irritation. As comparison, in each case water and a surfactant solution are tested as negative and positive standards.
Structure (SMILES),"total irritation score RSS (human skin [1]; 22 test subjects, applied on back, occlusive 24 h patch (Finn Chambers), assessed 6, 24, 48 and 72 h after patch removal, scale 0-4 for erythema, edema, squamation, fissuration)","total irritation score RSS (human skin [1]; human, in vivo, 24 h)",skin compatibility (human skin [2])
"CCCCCCCCCCCCOS(=O)(=O)[O-].[Na+] [Positive control, sodium dodecyl sulfate]",7.95,–,–
CCCCCC(CCC)COCC(CCC)CCCCC (stereo not shown) [Di(2-propylheptyl)ether],–,3.62,improved skin compatibility
"CCCCCCCCOCCCCCCCC [Di-n-alkyl ether (Cetiol ® OE), di-n-octyl ether]",–,7.1,–
